Measurements from PubChem BioAssay (NCI).
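Tested at 5 concentrations; 48 h exposure; 96-well plates; endpoints linearly interpolated, else capped at highest concentration. At the TGI there is no net growth.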

How the values were obtained:
Experiment in all cases: NCI anticancer screen, dose series, 48 h
[1] = system: MOLT-4 leukemia
[2] = system: RPMI-8226 leukemia
[3] = system: COLO 205 colon
[4] = system: HCT-15 colon
[5] = system: SK-OV-3 ovarian
[6] = system: EKVX NSCLC
[7] = system: OVCAR-8 ovarian
[8] = system: CAKI-1 renal
[9] = system: RXF 393 renal
[10] = system: HT29 colon
[11] = system: NCI-H23 lung
[12] = system: OVCAR-3 ovarian
[13] = system: SK-MEL-28 melanoma
[14] = system: SK-MEL-5 melanoma
[15] = system: K-562 leukemia
[16] = system: IGROV1 ovarian
[17] = system: HCT-116 colon
[18] = system: NCI-H226 lung
[19] = system: HCC-2998 colon
[20] = system: LXFL 529 NSCLC
[21] = system: DMS 114 small cell lung
[22] = system: RXF-631 renal
[23] = system: SR leukemia
[24] = system: NCI-H460 lung
[25] = system: SNB-19 CNS
[26] = system: HL-60(TB) leukemia
[27] = system: TK-10 renal
[28] = system: A549 NSCLC
[29] = system: SW-620 colon
[30] = system: HOP-92 NSCLC
[31] = system: MALME-3M melanoma
[32] = system: SF-295 CNS
[33] = system: KM20L2 colon
[34] = system: U251 CNS
[35] = system: LOX IMVI melanoma
[36] = system: HOP-62 NSCLC
[37] = system: UACC-257 melanoma
[38] = system: UACC-62 melanoma
[39] = system: NCI-H522 lung
[40] = system: ACHN renal
[41] = system: 786-0 renal
[42] = system: CCRF-CEM leukemia
[43] = system: SK-MEL-2 melanoma
[44] = system: DMS 273 small cell lung
[45] = system: SN12C renal
[46] = system: SF-268 CNS
[47] = system: DLD-1 colon
[48] = system: KM12 colon
[49] = system: SF-539 CNS
[50] = system: XF 498 CNS
[51] = system: OVCAR-5 ovarian
[52] = system: A498 renal
[53] = system: M14 melanoma
[54] = system: OVCAR-4 ovarian
[55] = system: UO-31 renal
[56] = system: SNB-75 CNS
[57] = system: PC-3 prostate
[58] = system: M19-MEL melanoma
[59] = system: MDA-MB-231 breast
[60] = system: HS 578T breast
[61] = system: T-47D breast
[62] = system: MCF7 breast
[63] = system: MDA-MB-435
[64] = system: SNB-78 CNS
[65] = system: DU-145 prostate
[66] = system: HOP-18 NSCLC
[67] = system: NCI/ADR-RES ovarian

SMILES: Cn1c2c(c3ccccc31)C1C(=O)N(c3ccccc3)C(=O)C1CC2 (stereo not given)
- TGI [1]: > 303 µM
- TGI [2]: > 303 µM
- TGI [3]: > 303 µM
- TGI [4]: > 303 µM
- TGI [5]: > 303 µM
- TGI [6]: > 303 µM
- TGI [7]: > 303 µM
- TGI [8]: > 303 µM
- TGI [9]: > 303 µM
- TGI [10]: > 303 µM
- TGI [11]: > 303 µM
- TGI [12]: > 303 µM
- TGI [13]: > 303 µM
- TGI [14]: > 303 µM
- TGI [15]: > 303 µM
- TGI [16]: > 303 µM
- TGI [17]: > 303 µM
- TGI [18]: > 303 µM
- TGI [19]: > 303 µM
- TGI [20]: > 303 µM
- TGI [21]: > 303 µM
- TGI [22]: > 303 µM
- TGI [23]: > 303 µM
- TGI [24]: > 303 µM
- TGI [25]: > 303 µM
- TGI [26]: > 303 µM
- TGI [27]: > 303 µM
- TGI [28]: > 303 µM
- TGI [29]: > 303 µM
- TGI [30]: > 303 µM
- TGI [31]: > 303 µM
- TGI [32]: > 303 µM
- TGI [33]: > 303 µM
- TGI [34]: > 303 µM
- TGI [35]: > 303 µM
- TGI [36]: > 303 µM
- TGI [37]: > 303 µM
- TGI [38]: > 303 µM
- TGI [39]: > 303 µM
- TGI [40]: > 303 µM
- TGI [41]: > 303 µM
- TGI [42]: > 303 µM
- TGI [43]: > 303 µM
- TGI [44]: > 303 µM
- TGI [45]: > 303 µM
- TGI [46]: > 303 µM
- TGI [47]: > 303 µM
- TGI [48]: > 303 µM
- TGI [49]: > 303 µM

SMILES: S=C(N/N=C/c1ccccc1)NC12CC3CC(CC(C3)C1)C2
- TGI [1]: 74.2 µM
- TGI [2]: 95.5 µM
- TGI [3]: 89.6 µM
- TGI [4]: > 100 µM
- TGI [5]: > 100 µM
- TGI [50]: > 100 µM
- TGI [6]: > 100 µM
- TGI [7]: > 100 µM
- TGI [8]: > 100 µM
- TGI [9]: > 100 µM
- TGI [10]: 26.5 µM
- TGI [11]: > 100 µM
- TGI [12]: 83.4 µM
- TGI [51]: > 100 µM
- TGI [13]: > 100 µM
- TGI [14]: > 100 µM
- TGI [15]: > 100 µM
- TGI [16]: > 100 µM
- TGI [17]: > 100 µM
- TGI [52]: > 100 µM
- TGI [18]: > 100 µM
- TGI [20]: > 100 µM
- TGI [22]: > 100 µM
- TGI [23]: > 100 µM
- TGI [24]: > 100 µM
- TGI [25]: > 100 µM
- TGI [26]: > 100 µM
- TGI [53]: > 100 µM
- TGI [27]: > 100 µM
- TGI [28]: > 100 µM
- TGI [29]: > 100 µM
- TGI [30]: 56.2 µM
- TGI [32]: > 100 µM
- TGI [33]: 76.2 µM
- TGI [54]: > 100 µM
- TGI [55]: > 100 µM
- TGI [34]: > 100 µM
- TGI [35]: 45.1 µM
- TGI [36]: > 100 µM
- TGI [37]: > 100 µM
- TGI [38]: > 100 µM
- TGI [39]: > 100 µM
- TGI [40]: > 100 µM
- TGI [41]: > 100 µM
- TGI [42]: 92.4 µM
- TGI [43]: > 100 µM
- TGI [44]: 67.9 µM
- TGI [45]: 48.8 µM
- TGI [46]: > 100 µM
- TGI [48]: > 100 µM
- TGI [49]: > 100 µM

SMILES: CC(C)c1cccc(C(C)C)c1NC(=S)N=Nc1cc(C(C)(C)C)c(O)c(C(C)(C)C)c1
- TGI [1]: > 100 µM
- TGI [2]: 85.9 µM
- TGI [3]: 44.6 µM
- TGI [4]: > 100 µM
- TGI [50]: 43.3 µM
- TGI [6]: > 100 µM
- TGI [7]: 38 µM
- TGI [9]: 30.9 µM
- TGI [10]: > 100 µM
- TGI [11]: 31.8 µM
- TGI [12]: 52.2 µM
- TGI [13]: 95.7 µM
- TGI [14]: 37.3 µM
- TGI [15]: 78.8 µM
- TGI [16]: 62.6 µM
- TGI [17]: 13.1 µM
- TGI [52]: 34.4 µM
- TGI [19]: 54.3 µM
- TGI [20]: > 100 µM
- TGI [21]: 55.5 µM
- TGI [22]: > 100 µM
- TGI [23]: > 100 µM
- TGI [24]: 67.8 µM
- TGI [25]: 48.5 µM
- TGI [26]: 65.9 µM
- TGI [53]: 84.3 µM
- TGI [27]: 71.5 µM
- TGI [28]: 45.6 µM
- TGI [29]: 78 µM
- TGI [56]: 58 µM
- TGI [31]: 63.8 µM
- TGI [32]: > 100 µM
- TGI [33]: 58.6 µM
- TGI [54]: 43.1 µM
- TGI [55]: 74.7 µM
- TGI [34]: 30.1 µM
- TGI [35]: 34.2 µM
- TGI [36]: 32.3 µM
- TGI [37]: 43.7 µM
- TGI [38]: 50 µM
- TGI [40]: > 100 µM
- TGI [41]: 35.7 µM
- TGI [42]: 66.6 µM
- TGI [43]: 35.8 µM
- TGI [44]: > 100 µM
- TGI [45]: 52.4 µM
- TGI [46]: > 100 µM
- TGI [47]: > 100 µM
- TGI [49]: 39 µM

SMILES: COc1cc(/C=C/c2ccc(/C=C/c3cc(OC)c(OC)c(OC)c3)cc2)cc(OC)c1OC
- TGI [1]: > 100 µM
- TGI [2]: > 100 µM
- TGI [3]: > 100 µM
- TGI [4]: > 100 µM
- TGI [5]: 22.7 µM
- TGI [50]: 31.4 µM
- TGI [6]: > 69.1 µM
- TGI [7]: 56.1 µM
- TGI [8]: 72.3 µM
- TGI [9]: 20.4 µM
- TGI [57]: > 100 µM
- TGI [10]: > 61.7 µM
- TGI [11]: 25.2 µM
- TGI [12]: 77.3 µM
- TGI [51]: > 100 µM
- TGI [13]: > 100 µM
- TGI [14]: > 100 µM
- TGI [15]: > 100 µM
- TGI [16]: > 71.1 µM
- TGI [17]: > 100 µM
- TGI [58]: > 100 µM
- TGI [52]: 26.1 µM
- TGI [18]: 49.7 µM
- TGI [59]: 52.7 µM
- TGI [19]: > 61.1 µM
- TGI [20]: 35.9 µM
- TGI [60]: 75.5 µM
- TGI [61]: 24 µM
- TGI [21]: > 68.2 µM
- TGI [23]: > 100 µM
- TGI [24]: > 82 µM
- TGI [25]: 32.6 µM
- TGI [26]: > 100 µM
- TGI [53]: > 100 µM
- TGI [27]: 39.5 µM
- TGI [28]: > 100 µM
- TGI [62]: > 100 µM
- TGI [29]: > 100 µM
- TGI [63]: > 100 µM
- TGI [30]: 34.7 µM
- TGI [56]: 19.5 µM
- TGI [31]: 60.1 µM
- TGI [32]: 19.8 µM
- TGI [33]: > 76.3 µM
- TGI [54]: 18.1 µM
- TGI [55]: > 84.6 µM
- TGI [64]: 85 µM
- TGI [65]: > 100 µM
- TGI [34]: 29.5 µM
- TGI [35]: > 85.8 µM
- TGI [36]: 31.3 µM
- TGI [37]: > 100 µM
- TGI [38]: 25.1 µM
- TGI [39]: 27.2 µM
- TGI [40]: 44.5 µM
- TGI [66]: > 100 µM
- TGI [41]: 20.7 µM
- TGI [42]: > 100 µM
- TGI [43]: 53.9 µM
- TGI [44]: > 48.9 µM
- TGI [45]: > 100 µM
- TGI [46]: 42.5 µM
- TGI [47]: > 100 µM
- TGI [48]: > 77.4 µM
- TGI [49]: 17.8 µM
- TGI [67]: > 100 µM
